Results: US20050287114A1, “Water-soluble polymeric bone-targeting drug delivery system” (University of Utah Research Foundation, priority 2003, published 2005)

Assays:
[1] = in vitro bone-targeting capacity: binding of conjugates to hydroxyapatite; settings: conjugate 1 mg/mL in phosphate buffered saline, 5 mg HA, 1 h at R.T., UV absorbance of supernatant
Experimental: Conjugates were dissolved in phosphate buffered saline to give a concentration of 1 mg/mL. The conjugate solution (100 μL) and 100 μL of the same buffer were incubated with 5 mg of hydroxyapatite (HA, Bio-Gel HTP, DNA grade; BIO-RAD, Hercules, Calif.) for 1 h at R.T. The solution was then centrifuged. The UV absorbance at certain wavelengths (FITC, 490 nm; 9-Gly-ATC, 450 nm) of the supernatant was monitored with an ELISA plate reader. Background correction was applied. The data presented is the average of three samples. The binding efficiency is expressed as the percentage of conjugates bound to HA (FIG. 4).

[2] = water solubility of lyophilized product; assay type: physicochemical
Experimental: TC was first transformed into anhydrotetracycline; an amino group was then introduced into the D ring. Stoel, L. et al.(1976) J. Pharm. Sci. 65, 1794-1799; Menachery, M. D. & Cava, M. P. (1984) Can. J. Chem. 62, 2583-2584. Because of the low activity of the aromatic amine, a glycine was coupled to the D ring of the TC molecule in order to introduce a more reactive primary amine by the following procedure. Boc-glycine (192.7 mg, 1.1 mmol), 9-NH2-ATC (514 mg, 1 mmol) and methyl morpholine (MM, 220 μL, 2 mmol) were dissolved in DMF (8 mL) and stirred at 0° C. for 1 h. DCC (227 mg, 1.1 mmol, in 2 mL DCM) was added to the solution and stirred for 1 h. The temperature of the solution was then raised to R.T. and stirred overnight. The resulting suspension was filtered. The solid (product and DCU) was washed three times with ethyl acetate and dried under vacuum. The Boc protection was removed with TFA. DCU was removed to yield 360 mg of 9-Gly-ATC (lyophilized), which is water-soluble.

binding to HA (percentage of conjugates bound to HA) [1]: slightly lower values | water solubility [2]: water-soluble
Structure (SMILES): Cc1c2c(c(O)c3c(O)c(NC(=O)CN)ccc13)C(=O)C1(O)C(=O)C(C(N)=O)=C(O)C(N(C)C)C1C2 (centres unmarked) [9-Gly-ATC, N-(9-aminoanhydrotetracycline)glycyl amide]
